One assay has as its system MIN6N8 murine β-cells. The experiment in a line: ER stress (ERAI reporter of Xbp1-splicing / Xbp1 splicing) in MIN6N8 β-cells. In kind it is cell-based. Also noted: % Inhibition of ER Stress (Xbp1 splicing): concentration or dose not given beside the values. As to conditions: for induction of ER stress (ERAI reporter of Xbp1-splicing): 50 ng/mL cytokines, 24 hour. The method, then: MIN6N8 cells are maintained in line with standard protocols. Cells are transfected with either the ERAI reporter plasmid (F-XBP1ΔDBD-Venus), or the ATF6-GFP plasmid (ADGENE), using LIPFECTAMINE 2000 according to the manufacturer's instructions.
On induction of ER stress, splicing of […] mRNA by IRE1a results in the translation of Venus, but not an active form of XBP1. Fluorescence was measured (excitation: 485 nm; emission: 520 nm) using the POLARstar Omega plate reader and cells were treated 48 h after transfection. The results are normalized with Gapdh expression as fold of vehicle-treated control (Con) cells.
Activation of ATF6 was assessed as follows: the area in pixels per square millimeter co-stained ATF6 and DAPI (blue and green), and total ATF6 staining (green) was determined in 5 fields of view for each section (n=6 for each condition) using IMAGEJ software version 1.45s. Data are presented as the percentage of ATF6 and DAPI co-fluorescence to the total ATF6 fluorescence. Phosphorylation of Ser-51 of eiF2 α was determined by an AlphaScreen assay as per the manufacturer's instructions (PERKIN-ELMER). The Griess reagent method was performed according to the manufacturer's instructions (MOLECULAR PROBES) to assess the intracellular levels of nitric oxide. 5-(and -6-)-carboxy-2,7-dichlorofluorescein diacetate (DCFDA) assay was used to determine the intracellular levels of H2O2 as previously described (Sakon et al., 2003). Cells were treated with glucose or recombinant cytokines at the concentrations indicated in the figure legends, or with 5 μM thapsigargin (SIGMA-ALDRICH) or 10 μg/mL tunicamycin (SIGMA-ALDRICH) or 0.1-0.5 mM Palmitate (SIGMA-ALDRICH) for the times indicated in the legends. ROS was […] using the dihydroethidium (DHE) fluorescent cell-permeable probe (SIGMA-ALDRICH). MIN6N8 cells plated at 2×10^6/mL were incubated with 3 μM DHE and subsequently treated with DMSO (control), 50 ng/mL IL-23 for 30 minutes±[…] IL-22 at the same time or 30 minutes prior to IL-23.
To inhibit transcription factors the following specific inhibitors (and concentrations) were used:
MIN6N8 cells were exposed to a panel of cytokines to determine the effect of each cytokine on ER stress. ER stress was measured using the above-described method. Specifically, the cells were exposed to either a 24 hour treatment of any one of […] glucose (hi glucose), 10 μM H2O2, 0.5 mM palmitic acid or 50 ng/mL cytokines; or a 6 hour treatment with 10 μg/mL tunicamycin or 5 μM thapsigargin.
Experiments to assess ER and/or oxidative stress, and methods of qRT-PCT and/or quantifying gene expression were performed as described for Example 1. Xbp1 splicing is assessed by qRT-PCR, with normalization versus Gapdh, and expression presented as fold of vehicle-treated control cells.

A further assay deals with Murine MIN6N8 cells. The assay is described as follows: ERAI-sXBP1 reporter ER stress in MIN6N8 cells with 0.5 mM palmitate. The format is cell-based. As to conditions: 24 hours. The method, then: Cell culture: Murine MIN6N8 cells were tested negative for mycoplasma. Cells were routinely cultured in phenol-red free DMEM (Life Technologies) containing 25 mM glucose (3.4 g/L sodium bicarbonate, 50 U/mL penicillin and streptomycin, 71.5 μM β-mercaptoethanol and 10% heat inactivated fetal bovine serum) and transferred to DMEM as above with 5.5 mM glucose 48 h prior to experimentation. Human LS174T cells were cultured in DMEM containing 10% heat-inactivated fetal bovine serum, 50 U mL^−1 penicillin and streptomycin.
ER Stress Measurement: MIN6N8 cells were transfected with the ERAI reporter plasmid (F-XBP1ΔDBD-venus, using Lipofectamine 2000 according to the manufacturer's instructions. For ERAI there was negligible fluorescence in the absence of ER stressors, but upon induction of ER stress, splicing of XBP1 mRNA by IRE1a results in the translation of Venus but not an active form of XBP1. Fluorescence was measured (excitation: 485 nm; emission: 520 nm) using a POLARstar Omega plate reader and cells were treated 48 h after transfection. […] After 24 h, ERAI-sXBP1 GFP reporter fluorescence was measured.

Another assay deals with STAT3 phosphorylation. The experiment in a line: pStat3 staining in pancreatic islets vs liver, intestine and skin. The format is in vivo, C57BL/6 mice. As to conditions: 30 min. On the procedure:
Targeting to IL-22 to pancreas: Non-obese male C57BL/6 at 6-8 weeks of age. Each IL-22-GLP-1R ligand fusion protein or hIL-22 was administered i.p. at 256 ng/g of IL-22 and the molar equivalents for the individual fusion proteins (n=3 per regimen). IL-22-ScaB1 was administered at […]. Control mice received a PBS control i.p. injection only.
To assess in vivo activation of the IL-22 receptor signaling pathway, after 30 min the mice were sacrificed and the following tissues were snap frozen and sections were prepared for each mouse: pancreas, skin (ear, tail), colon (rolled), and liver. Sections were stained by immunofluorescence for phosphorylated STAT3 using the Phospho-Stat3 (Tyr705) (D3A7) antibody.

In the case of `N[C@@H](CCC(=O)N[C@@H](CS)C(=O)NCC(=O)O)C(=O)O` [GSH, reduced glutathione], the “% Inhibition of ER Stress (Xbp1 splicing)” value (“% Inhibition of ER Stress” below) is 15% with MIN6N8 murine β-cells (ER stress induced by IFNγ); 16% with MIN6N8 murine β-cells (ER stress induced by IL-1β); 0% with MIN6N8 murine β-cells (ER stress induced by IL-17A); 87% in the assay on MIN6N8 murine β-cells (ER stress induced by IL-23); 6% in the assay on MIN6N8 murine β-cells (ER stress induced by IL-24); 13% in the assay with MIN6N8 murine β-cells (ER stress induced by IL-33). Also, in the assay with MIN6N8 murine β-cells (ER stress induced by MIP-2α), the “% Inhibition of ER Stress” value was 7%.

Consider `CNC(=N)NCCC[C@H](N)C(=O)O` [L-NMMA, N^G-Methyl-L-arginine], for which the “% Inhibition of ER Stress” value in the assay with MIN6N8 murine β-cells (ER stress induced by IFNγ) was 87%; in the assay on MIN6N8 murine β-cells (ER stress induced by IL-1β), 93%; with MIN6N8 murine β-cells (ER stress induced by IL-17A), 83%; with MIN6N8 murine β-cells (ER stress induced by IL-23) it was 78%; in the assay with MIN6N8 murine β-cells (ER stress induced by IL-24), 92%; with MIN6N8 murine β-cells (ER stress induced by IL-33), 90%. In addition, the “% Inhibition of ER Stress” value with MIN6N8 murine β-cells (ER stress induced by MIP-2α) came to 95%.

Take IL-1β: ER stress-inducing cytokine: in the assay on MIN6N8 murine β-cells, the “induction of ER stress (ERAI reporter of Xbp1-splicing)” value (from here on “induction of ER stress”) is reported as “lower stress response”.

As to IL-17A: ER stress-inducing cytokine, in the assay with MIN6N8 murine β-cells, the “induction of ER stress” value was “lower stress response”.

For the molecule MIP-2α: ER stress-inducing chemokine, the “induction of ER stress” value in the assay on MIN6N8 murine β-cells is recorded as “lower stress response”.

For superoxide dismutase [SOD1], the “% Inhibition of ER Stress” value in the assay on MIN6N8 murine β-cells (ER stress induced by IFNγ) was determined as 74%; with MIN6N8 murine β-cells (ER stress induced by IL-1β) it was 96%; in the assay with MIN6N8 murine β-cells (ER stress induced by IL-17A) it was 65%; with MIN6N8 murine β-cells (ER stress induced by IL-23), 95%; in the assay on MIN6N8 murine β-cells (ER stress induced by IL-24), 59%; with MIN6N8 murine β-cells (ER stress induced by IL-33), 74%. The “% Inhibition of ER Stress” value in the assay on MIN6N8 murine β-cells (ER stress induced by MIP-2α) came out at 88%.

B1: IL-22-ScaB1: IL-22-single chain antibody construct targeting a β-cell antigen; scFv-cytokine fusion protein with His- and myc-tag (protein)
chain: HHHHHHEVQLLESGGGLVQPGGSLRLSCAASGFTFSSYAMSWVRQAPGKGLEWVSSITAEGTHTWYADSVKGRFTISRDNSKNTLYLQMNSLRAEDTAVYYCAKTSYRFDYWGQGTLVTVSSGGGGSGGGGSGGGGSDIQMTQSPSSLSASVGDRVTITCRASQSISSYLNWYQQKPGKAPKLLIYKASRLQSGVPSRFSGSGSGTDFTLTISSLQPEDFATYYCQQKWDPPRTFGQGTKVEIKRSGGGGSAPISSHCRLDKSNFQQPYITNRTFMLAKEASLADNNTDVRLIGEKLFHGVSMSERCYLMKQVLNFTLEEVLFPQSDRFQPYMQEVVPFLARLSNRLSTCHIEGDDLHIQRNVQKLKDTVKKLGESGEIKAIGELDLLFMSLRNACIEQKLISEEDLN
modifications: His-ScaB1 scFv-IL22 human-myc
notes: IL-22-single chain antibody construct targeting a β-cell antigen; scFv-cytokine fusion protein with His- and myc-tag
On to B1, for which the “ER stress caused by the protein alone” value in the assay on Murine MIN6N8 cells (15.4 nM, no palmitate) is “did not cause ER stress”. The “potency compared to the native human IL-22 in reducing ER stress” value with Murine MIN6N8 cells (0.5 mM palmitate) was < 50%. In the assay on Murine MIN6N8 cells (co-treated with 0.5 mM palmitate, increasing concentrations), the “protection from palmitate-induced ER stress” value is “reduced ER stress induced by palmitate”. For the same molecule, in the assay with STAT3 phosphorylation (0.96 nmoles/g), the “pStat3 ratio pancreatic islets vs liver, skin or intestine relative to human IL-22” value is “not greater than for native human IL-22”. Besides, in the assay on STAT3 phosphorylation (15.4 nmoles/g), the “pStat3 ratio pancreatic islets vs intestine, fold change relative to human IL-22” value is reported as 420 fold; the “pStat3 ratio pancreatic islets vs liver, fold change relative to human IL-22” value was 120 fold; the “pStat3 ratio pancreatic islets vs skin, fold change relative to human IL-22” value is given as 110 fold.

B2: IL-10: cytokine that inhibits ER stress (protein, UniProt P22301 19-178, looked up)
Interleukin-10: SPGQGTQSENSCTHFPGNLPNMLRDLRDAFSRVKTFFQMKDQLDNLLLKESLLEDFKGYLGCQALSEMIQFYLEEVMPQAENQDPDIKAHVNSLGENLKTLRLRLRRCHRFLPCENKSKAVEQVKNAFNKLQEKGIYKAMSEFDIFINYIEAYMTMKIRN
Take B2: the “inhibition of ER stress initiated by cytokines or tunicamycin” value with MIN6N8 murine β-cells (pair-wise combinations of cytokines) was “inhibit ER stress”.

B3: IL-24: ER stress-inducing cytokine (protein, UniProt Q13007 52-206, looked up)
Interleukin-24: QEFHFGPCQVKGVVPQKLWEAFWAVKDTMQAQDNITSARLLQQEVLQNVSDAESCYLVHTLLEFYLKTVFKNYHNRTVEVRTLKSFSTLANNFVLIVSQLQPSQENEMFSIRDSAHRRFLLFRRAFKQLDVEAALTKALGEVDILLTWMQKFYKL
For the molecule B3, the “induction of ER stress” value in the assay on MIN6N8 murine β-cells is “potent inducers of ER stress”.

B4: IL-33: ER stress-inducing cytokine (protein, UniProt O95760 1-270, looked up)
Interleukin-33: MKPKMKYSTNKISTAKWKNTASKALCFKLGKSQQKAKEVCPMYFMKLRSGLMIKKEACYFRRETTKRPSLKTGRKHKRHLVLAACQQQSTVECFAFGISGVQKYTRALHDSSITGISPITEYLASLSTYNDQSITFALEDESYEIYVEDLKKDEKKDKVLLSYYESQHPSNESGDGVDGKMLMVTLSPTKDFWLHANNKEHSVELHKCEKPLPDQAFFVLHNMHSNCVSFECKTDPGVFIGVKDNHLALIKVDSSENLCTENILFKLSET
In the case of B4, in the assay on MIN6N8 murine β-cells, the “induction of ER stress” value is “potent inducers of ER stress”.

B5: IL-23: ER stress-inducing cytokine (protein, UniProt Q9NPF7 20-189; P29460 23-328, looked up)
Interleukin-23 subunit alpha: RAVPGGSSPAWTQCQQLSQKLCTLAWSAHPLVGHMDLREEGDEETTNDVPHIQCGDGCDPQGLRDNSQFCLQRIHQGLIFYEKLLGSDIFTGEPSLLPDSPVGQLHASLLGLSQLLQPEGHHWETQQIPSLSPSQPWQRLLLRFKILRSLQAFVAVAARVFAHGAATLSP
Interleukin-12 subunit beta: IWELKKDVYVVELDWYPDAPGEMVVLTCDTPEEDGITWTLDQSSEVLGSGKTLTIQVKEFGDAGQYTCHKGGEVLSHSLLLLHKKEDGIWSTDILKDQKEPKNKTFLRCEAKNYSGRFTCWWLTTISTDLTFSVKSSRGSSDPQGVTCGAATLSAERVRGDNKEYEYSVECQEDSACPAAEESLPIEVMVDAVHKLKYENYTSSFFIRDIIKPDPPKNLQLKPLKNSRQVEVSWEYPDTWSTPHSYFSLTFCVQVQGKSKREKKDRVFTDKTSATVICRKNASISVRAQDRYYSSSWSEWASVPCS
In the case of B5, in the assay with MIN6N8 murine β-cells, the “induction of ER stress” value is given as “potent inducers of ER stress”.

B6: IFN-γ: ER stress-inducing cytokine (protein, UniProt P01579 24-161, looked up)
Interferon gamma: QDPYVKEAENLKKYFNAGHSDVADNGTLFLGILKNWKEESDRKIMQSQIVSFYFKLFKNFKDDQSIQKSVETIKEDMNVKFFNSNKKKRDDFEKLTNYSVTDLNVQRKAIHELIQVMAELSPAAKTGKRKRSQMLFRG
As for B6, in the assay with MIN6N8 murine β-cells, the “induction of ER stress” value is “lower stress response”.

Values taken from US10695406B2, “Modulation of cellular stress using a B-cell oxidative and/or endoplasmic reticulum stress inhibitor and a targeting agent” (THE UNIVERSITY OF QUEENSLAND, priority 2014, dated 2020).
